Measured values: patent publication US20080221205A1, “FURAN DERIVATIVES FOR PREVENTING AND CURING OSTEOPOROSIS AND PHARMACEUTICAL COMPOSITIONS CONTAINING THE SAME” (priority 2002, published 2008)

System: osteoclast formation
Assay: Inhibition rate of furan derivatives versus osteoclast formation (TRAP staining)
Type: cell-based, mice
Conditions: TRAP-positive multinucleated cells, untreated control set as 100%
Description: First, bone marrow cells were isolated, as follow. After sacrificing 7-9 week female mice by cervical dislocation, femur and tibia were excised aseptically while removing attached soft tissues. After cutting both ends of long bones, 1 ml of an enzyme solution, containing 0.1% collagenase (Gibco), 0.05% trypsin and 0.5 mM EDTA (Gibco), was injected to the bone marrow cavity at one end using a syringe with a 26-guage needle, and bone marrow was then collected. After shaking the recovered bone marrow for 30 min, bone marrow cells were collected, and cultured in α-minimum essential medium (α-MEM) supplemented with 10% FBS for 24 hrs. Then, non-adherent cells were collected, which are osteoclast pregenitors, aliquotted onto culture plates at a density of 2×10^5 cells per well, and cultured for 8 days in α-MEM supplemented with 20 ng/ml of macrophage-colony stimulating factor (M-CSF, Peprotech, USA) and 30 ng/ml RANKL (Peprotech, USA). During the 8 days of culturing, the cells were treated with the Compound 1. Thereafter, osteoclast formation was investigated by fixing the cultured cells and then carrying out TRAP staining, as described in the following Experimental Example 2.2. In addition, resorption activity of osteoclasts was investigated by measuring the absorption area after removing osteoclasts in cultures in calcium phosphate-coated plates, as described in Experimental Example 2.3, below.
After cell culture, the adherent cells were washed with PBS, and TRAP staining was performed, as follows. After being fixed with citrate-acetate-formaldehyde for 5 min, the cells were incubated for 1 hr in acetate buffer (prewarmed at 37° C., pH 5.0) containing naphthol AS-BI phosphate, fast Garnet GBC and 7 mM tartrate buffer (pH 5.0). TRAP-positive multinucleated cells having 3 or more nuclei were considered as osteoclasts.
Osteoclast pregenitor cells were isolated, and their differentiation to mature osteoclasts was induced, according to the same method as in the Experimental Example 2-1, while treated with each of the furan derivatives of the present invention. According to the same method as in the Experimental Example 2-2, TRAP staining performed, and TRAP-positive multinucleated cells were counted. An inhibition rate of each furan derivative against osteoclast formation was expressed as percentage, wherein the number of stained cells in a control not treated the furan derivative was arbitrarily set as 100% (Tables 14 to 16).

Structure (SMILES) | Inhibition rate against osteoclast formation, % (0.1 μM) [%] | Inhibition rate against osteoclast formation, % (10 μM) [%] | Inhibition rate against osteoclast formation, % (1 μM) [%]
O=Cc1ccc(COC(=O)Cc2ccccc2)o1 [Compound 32] | 0 | 50 | 
O=Cc1ccc(COC(=O)Cc2c(F)cccc2F)o1 [Compound 33] | 0 | 50 | 3.3
O=Cc1ccc(COC(=O)Cc2c(F)cccc2Cl)o1 [Compound 34] | 0 |  | 
O=Cc1ccc(COC(=O)Cc2cccc(Cl)c2)o1 [Compound 35] | 0 |  | 
O=Cc1ccc(COC(=O)Cc2ccsc2)o1 [Compound 36] | 0 | 30 | 
O=Cc1ccc(COC(=O)Cc2cccc(F)c2)o1 [Compound 37] | 0 |  | 10
O=Cc1ccc(COC(=O)Cc2ccc3ccccc3c2)o1 [Compound 38] | 0 | 20 | 
O=Cc1ccc(COC(=O)Cc2ccc(F)cc2F)o1 [Compound 39] | 0 |  | 10
O=Cc1ccc(COC(=O)C(c2ccccc2)(c2ccccc2)c2ccccc2)o1 [Compound 40] | 0 |  | 
COc1cccc(F)c1CC(=O)OCc1ccc(C=O)o1 [Compound 41] | 0 |  | 
COc1ccc(F)c(CC(=O)OCc2ccc(C=O)o2)c1 [Compound 42] | 0 |  | 
O=Cc1ccc(COC(=O)Nc2cccc(Cl)c2)o1 [Compound 49] | 0 | 0 | 10
O=Cc1ccc(COC(=O)Nc2ccc(Br)cc2)o1 [Compound 50] | 0 | 0 | 10
CCCCNC(=O)OCc1ccc(C=O)o1 [Compound 53] | 0 |  | 10
O=Cc1ccc(COC(=O)Nc2ccc(Cl)c(Cl)c2)o1 [Compound 54] | 0 | 10 | 0
O=Cc1ccc(COC(=O)Nc2ccccc2Cl)o1 [Compound 55] | 0 | 20 | 20
C=CCc1ccc(OCc2ccc(C(=O)OC)o2)c(OC)c1 [Compound 59] | 0 |  | 0
COC(=O)c1ccc(COc2ccc(Cl)cc2Cl)o1 [Compound 60] | 0 |  | 0
COC(=O)c1ccc(COc2ccccc2Cl)o1 [Compound 61] | 0 |  | 0
COC(=O)c1ccc(COc2ccc(Cl)cc2[N+](=O)[O-])o1 [Compound 66] | 0 |  | 0
COC(=O)c1ccc(COc2ccccc2[N+](=O)[O-])o1 [Compound 67] | 0 |  | 0
COC(=O)c1ccc(COc2cc(C)ccc2C(C)C)o1 [Compound 68] | 0 | 5.62 | 0
COC(=O)c1ccc(COc2ccc3c(c2)CCC3)o1 [Compound 70] | 0 |  | 0
COC(=O)c1ccc(COc2ccc(Cl)c(C)c2)o1 [Compound 75] | 0 | 0.78 | 0
COC(=O)c1ccc(COc2ccc(I)cc2)o1 [Compound 79] | 0 |  | 0
